# Active and inactive are the calls of the source.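 Rule for the calls: active = fitted half-maximal inhibitory concentration AC50 at most ten times the top concentration tested; inconclusive = flat fit with 30 to 70% inhibition, or unusable fit; inactive = AC50 above ten times the top concentration.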
# Molecular target: E3 ubiquitin-protein ligase TRIM62 (Homo sapiens) (UniProt Q9BVG3)
# Experiment: inhibitors of TRIM62-driven CARD9 ubiquitylation, dose response, CARD9-TRIM62 disruptor project, biochemical, ubiquitin ELISA, AlphaLISA TUBE (AID 1259342);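 for AC50: potency is for inhibitors that reduce CARD9 ubiquitylation signal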
# Conditions: TRIM62-mediated CARD9 ubiquitylation, AlphaLISA TUBE detection
# E3 ubiquitin-protein ligase TRIM62 (Homo sapiens), sequence (Q9BVG3 whole entry, looked up): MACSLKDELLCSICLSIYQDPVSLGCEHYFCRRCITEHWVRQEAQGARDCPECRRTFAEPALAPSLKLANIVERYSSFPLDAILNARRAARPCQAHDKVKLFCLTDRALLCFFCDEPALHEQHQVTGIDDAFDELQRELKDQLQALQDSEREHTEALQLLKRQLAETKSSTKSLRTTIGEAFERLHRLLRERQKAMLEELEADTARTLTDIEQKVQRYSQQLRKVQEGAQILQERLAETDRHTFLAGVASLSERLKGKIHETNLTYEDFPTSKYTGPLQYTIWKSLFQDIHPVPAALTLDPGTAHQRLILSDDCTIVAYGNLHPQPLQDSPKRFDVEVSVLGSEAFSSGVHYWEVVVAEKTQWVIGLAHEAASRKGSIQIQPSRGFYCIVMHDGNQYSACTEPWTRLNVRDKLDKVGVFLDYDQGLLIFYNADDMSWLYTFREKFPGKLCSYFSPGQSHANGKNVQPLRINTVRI
row,Structure (SMILES),AC50
1,COc1ccc(F)c(CN2C[C@H]3CC[C@@H]2CN(Cc2cscn2)C3)c1,> 160 µM (inactive)
2,O=C(Cc1ccc(S(=O)(=O)N2CCOCC2)s1)Nc1nc2c(s1)CCCC2,26 µM
3,O=S(=O)(c1ccc2nc(-c3ccco3)c(-c3ccco3)nc2c1)N1CCOCC1,31.1 µM
4,CCOc1cc2c(C#N)c(N3CCNCC3)nc(N)c2c(N)n1,> 160 µM (inactive)
5,Cc1sc2ncnc(SCc3ccco3)c2c1C,56.6 µM

# Same assay, conditions: TRIM62-mediated CARD9 ubiquitylation, AlphaLISA TUBE detection; at 80 µM (top of the series)
row,Structure (SMILES),"activity change, negative = inhibition"
1,Cc1c(/C=C/c2nc3ccccc3c(=O)n2-c2ccccn2)c2ccccc2n1C,inactive
2,CC1(C)Cc2c(c(N3CCOCC3)nc3sc(C(=O)NCc4ccco4)c(N)c23)CO1,inactive
3,O=C(Nc1ccc(OCC(=O)N2CCOCC2)cc1)c1cncc(Br)c1,inactive
4,O=C(NC1(C(F)(F)F)Oc2ccc(Cl)cc2O1)N1CCC2(CC1)OCCO2 (centres undefined),inactive

# From PubChem BioAssay AID1259342 (Broad Institute, 2017)
